Measured values from patent US8242152B2, “Use of 4-[(4-thiazolyl)phenoxy]alkoxy-benzamidine derivatives for the prophylaxis and treatment of osteoporosis” (Dong Wha Pharmaceutical Co., Ltd., priority 2001, dated 2012).
“Also recorded” adds a separate entry of the source.

How the values were obtained:
[1] = test system: LTB4-induced osteoclast formation; assay: LTB4-induced osteoclast formation in rabbit osteoclast cultures, co-treatment and pre-treatment (Example 6); type: cell-based; conditions: dentin slices
Method: (§1) Rabbit osteoclasts were isolated as described by Victoria Tai's report (Doctoral Dissertation, 1997, Graduate Department of Pharmacology, University of Toronto) and Rraser P. Coxon et al. (Methods in Molecular Medicine, vol 80). Neonatal rabbits (New Zealand White) were sacrificed by ether-inhaling method under a hood. The removed long bones were dissected free of attached soft tissues and placed into ice-cold PBS. The long bones were cut longitudinally and mechanically curetted in 10 ml medium 199 with antibiotics (10 ug/ml penicillin G and 50 ug/ml gentamycin) in a glass Petri dish. Each bone was curetted with a scalpel blade and was finely minced. The fragments were then vigorously agitated by pipetting up and down using a pasteur pipette and vortex-mixed for 30 seconds. The fragments were allowed to settle and the cell suspension was then transferred to a 50 ml tube and the previous step repeated three times to a total volume of 40 ml. The bone fragments were allowed to settle (>1 min). The cell suspension was then transferred to a new 50 ml tube, passed through a 40 um cell strainer and centrifuged at 200 g for 8 minutes. The supernatant was removed and the pellet was immediately resuspended in α-MEM with 2% FBS (bicarbonate buffered medium).
(§2) 40 uL droplets of osteoclast-containing suspensions were plated onto 60 mm tissue culture plastic dishes or on dentine slices in 96-well microtiter plates in 2% medium. The cells were allowed ninety minutes for attachment before the addition of 2 mL α-MEM with 2% FBS. After 24 hr culture, cells were washed to remove non-adherent cells and replaced with fresh medium as describes below.
After 24 hr in culture, the medium was removed and replaced with fresh medium containing both LTB4 receptor antagonist (1000 nM) and LTB4 (100 nM) or both DW1350 (1000 nM) and LTB4 (100 nM). The cultures were continued for an additional 48 hrs.
After 6 hrs in culture, the medium was removed and cells were pretreated with LTB4 receptor antagonists such as LY292728 (Journal of Medical Chemistry, 1995, vol. 38, No. 10, p 4411-4432), SB209247 (Journal of Medical Chemistry, 1996, vol. 39, No. 19, p 3837-3841), LY293111(Journal of Medical Chemistry, 1995, vol. 38, No. 10, p 4411-4432) and LY223982 (Journal of Medical Chemistry, 1993, vol. 36, p 3333-3340) or DW1350-containing medium and culture continued for 18 hrs. The medium was replaced with medium containing both LTB4 receptor antagonist and LTB4 or DW1350 and LTB4. The cultures were continued for an additional 48 hrs.
(§3) All cells were cultured at 37° C. in a humidified atmosphere of 95% air and 5% CO2 in bicarbonate buffered medium at pH 7.4.
(§4) Differentiated osteoclasts are multinucleated cells and have specific enzyme activity, such as ‘tartrate-resistant acid phosphatase (TRAP)’. Therefore, Osteoclast formation was determined by counting the number of TRAP-positive multinucleated cells (TRAP(+) MNCs).
(§5) After culture, the cells were fixed with 10% neutral buffered formalin for 30 min at 4° C., washed twice in distilled water and stained for TRAP activity by incubating with substrate. The number of TRAP(+)MNC with more than 2 nuclei was counted under photomicroscope.
(§6) Results were expressed as mean number of TRAP(+)MNC±SD of All experiments were done at least twice. Statistical analysis was performed for each experiment by student t-test.

[2] = test system: rabbit osteoclasts; assay: TRAP(+) MNC formation in isolated rabbit osteoclast cultures, single treatment without LTB4 (Example 6); type: cell-based
Method: as §1, §2
After 24 hr in culture, the medium was replaced with fresh medium containing control, LTB4 receptor antagonists (1000 nM), DW1350 (10, 100 and 1000 nM) or LTB4 (100 nM) and the cultures were continued for an additional 48 hrs.
as §3, §4, §5, §6

Cc1nc(-c2ccc(OCCCCCOc3ccc(C(=N)NO)cc3)cc2)c(C(C)C)s1 [DW1350, N-hydroxy-4-{5-[4-(5-isopropyl-2-methyl-1,3-thiazol-4-yl)phenoxy]pentoxy}-benzamidine]
LTB4-stimulated osteoclast formation ([1]; pre-treatment 18 hrs, then 1000 nM compound + 100 nM LTB4 for 48 hrs): significant inhibition on LTB4-stimulated osteoclast formation | LTB4-stimulated osteoclast formation ([1]; simultaneous treatment: 1000 nM compound + 100 nM LTB4, 48 hrs): significant inhibition on LTB4-stimulated osteoclast formation | number of TRAP(+) MNCs / osteoclast formation ([2]; 1000 nM, single treatment without LTB4, dentine slices, 48 hrs (FIG. 3-8)): significant inhibition on the formation of osteoclasts; also recorded: significantly inhibited it | cytotoxic effect based on cell morphology ([2]; 10˜1000 nM, 48 hours): No cytotoxic effect based on cell morphology was not observed | number of TRAP(+) MNCs ([2]; 10˜1000 nM, 48 hours, tissue culture dish, single treatment (FIG. 1, 2)): significantly decreased the number of TRAP(+) MNCs in a dose-dependent manner
